Data on 17 molecules can be found in patent US20160313303A1, “BICOMPATIBLE LIQUID AND METHOD FOR SCREENING SAME” (KABUSHIKI KAISHA TOYOTA CHUO KENKYUSHO, priority 2015, published 2016).

Read-outs that look alike come from different tables or passages of the source.

In data set [1] the test system is leaves of Arabidopsis thaliana. Nature of the data set: Soaking of plant leaves in organic solvents, observation of appearance. Particulars: for change in the appearance of leaves: leaf of A. thaliana soaked in the solvent, observed after 2 hours.
Method: (§1) Further, the leaves used for the test after observation were soaked in water over 16 hours followed by observation. Water was used as a control. Although water is cytotoxic to naked cells, it is not cytotoxic to cells having cell walls, and thus could be used as a control.
For data set [2], the system named is Human airway epithelial cell line BEAS-2B. Nature of the data set: Cytotoxicity test (WST-8 assay) after direct contact of test liquids with cells for about 2 hours; normalized cell survival rate. Conditions: direct contact with test liquid about 2 hours, WST-8 24 hours after contact, control liquid (0.5% FBS-containing RPMI-1640) = 1.
The subject of data set [3] is human airway epithelial cells Calu-3. Nature of the data set: Transepithelial electric resistance (TER) of cells on porous support after contact with non-hydrophilic liquids. The class given is cell-based. Conditions: Calu-3, 3 hours contact with 200 ul liquid, TER after 24 hours in fresh medium, FIG. 18. The procedure:
In the present Example, an action of non-hydrophilic liquids having the fluorocarbon structure was evaluated using human airway epithelial cells Calu-3. As a device for evaluation, the evaluation device 20 illustrated in FIG. 16 was used. […] At the bottom of each insert, a porous support 28 is provided that can retain and cultivate cells.
Cells were inoculated on each support 28 in the insert 24 and the space in the well 22 other than the insert 24 and the cavity in the insert 24 were filled with the cell growth medium. The evaluation device 20 was then left to stand in a CO2 incubator for a few days to allow dense growth of cells on the whole upper surface of the support 28, thereby carrying out the pre-cultivation step. In the pre-cultivation step, the transepithelial electric resistance (TER) was measured over time to confirm that a barrier (coverage and functional tight junctions) was constructed on the surface of the cells that is in contact with the insert 24.
Next, a cell structure illustrated in FIG. 17 was prepared. […]
After 24 hours, the cells on the support 28 in the cell structure removed from the CO2 incubator were again measured for the transepithelial electric resistance (TER) after removal of the growth medium in order to confirm the extent of formation of the cell barrier. […]

The test system is the same in data set [4]. Nature of the data set: WST-8 absorbance of cells on porous support after contact with solutions of PFOA in hydrofluoroether. Type of data set: cell-based. Conditions: PFOA in hydrofluoroether (C4F9OC2H5); for absorbance (WST-8): 15 hours. The procedure:
In the present Example, hydrofluoroether (C4F9OC2H5) was used as the non-hydrophilic liquid and perfluorooctanoic acid (PFOA) was used as the non-hydrophilic substance. Solutions of PFOA in hydrofluoroether having various PFOA concentrations ([…], 1 and 10 g/L) were prepared. The solutions correspond to the second liquid of the present disclosure.
In the similar manner as Example 4 except that the solutions of PFOA in hydrofluoroether were used, the procedure was carried out up to the pre-cultivation step. Thereafter the cultivation step was carried out by using the solutions as the second liquid and leaving the device in the CO2 incubator for 15 hours.
Thereafter […], was removed from the cavity of the insert 24, 200 μl of an aqueous solution of a medium containing WST-8 (2-(2-methoxy-4-nitrophenyl)-3(4-nitrophenyl)-5-(2,4-disulfophenyl)-2H-tetrazolium), which is a kind of a tetrazolium salt, was added and the device was let to stand in the CO2 incubator for 20 minutes for cultivation.
Thereafter 100 μl of the medium was transferred from the insert 24 of the cell structure into a microplate and the absorbance at the wavelengths 450 nm and 600 nm was measured.

Data set [5] relates to leaves of Arabidopsis thaliana.
Method: as §1

For HFE-7200 [S6], the “change in the appearance of leaves” value in data set [1] is given as “did not change an appearance of leaves of A. thaliana”. Moreover, in data set [2], the “Normalized cell survival rate” value came out at 0.88. Further, in data set [3], the “effect on cell death or intercellular tight junctions (TER)” value was “had less effect on cell death or intercellular tight junctions than perfluorohexane, which effect was almost the same as the controls”.

Regarding `OCC(F)(F)C(F)(F)C(F)(F)C(F)(F)C(F)(F)C(F)F` [S4, 1H,1H,7H-Dodecafluoro-1-heptanol], the “Normalized cell survival rate” value in data set [2] turned out to be 0.01.

As for `CC(C)=O` [P3, Acetone, reference compound], in data set [1], the “change in the appearance of leaves” value was “eroded epidermal cells of the leaves of A. thaliana and caused effusion of chlorophyll”. Moreover, the “change in the appearance of leaves after subsequent soaking in water” value in data set [1] (leaves after the 2 hours test soaked in water over 16 hours, compared to control water) is reported as “caused atrophy (deformation) of leaves of A. thaliana”. For the same molecule, in data set [2], the “Normalized cell survival rate” value was found to be 0.01.

Take `FC(F)(F)c1cccc(C(F)(F)F)c1` [S1, 1,3-Bis(Trifluoromethyl) Benzene]: in data set [2], the “Normalized cell survival rate” value is reported as 0.01.

As to `FC(F)(F)C(F)(F)C(F)(F)C(F)(F)C(F)(F)C(F)(F)C(F)(F)C(F)(F)Br` [S20, 1-Bromoperfluorooctane], the “Normalized cell survival rate” value in data set [2] is on record as 1.2.

Regarding `O=C(O)C(F)(F)C(F)(F)C(F)(F)C(F)(F)C(F)(F)C(F)(F)C(F)(F)F` [PFOA, perfluorooctanoic acid], in data set [4] (Calu-3, 15 hours), the “PFOA concentration with an action of causing cell death” value is not below 1 g/L. The “absorbance (WST-8)” value in data set [4] (at or above 1 g/L of PFOA) is on record as “hardly detected”; in data set [4] (until PFOA concentration 0.1 g/L), “almost at the same level”.

Turning to `C[Si]1(C)O[Si](C)(C)O[Si](C)(C)O[Si](C)(C)O[Si](C)(C)O1` [S19, Decamethylcyclopentasiloxane], the “Normalized cell survival rate” value in data set [2] is reported as 0.92.

As for `CCO` [P2, Ethanol, reference compound], the “change in the appearance of leaves” value in data set [5] was “eroded epidermal cells of the leaves of A. thaliana and caused effusion of chlorophyll”. Moreover, the “Normalized cell survival rate” value in data set [2] was determined as 0.01.

For `O` [P1, Water, reference compound], in data set [2], the “Normalized cell survival rate” value is given as 0.01.

In the case of `COC(F)(F)C(F)(F)C(F)(F)F` [S21, HFE-7000], in data set [2], the “Normalized cell survival rate” value is recorded as 1.01.

In the case of `FC(F)(F)C(F)(F)C(F)(F)C(F)(F)C(F)(F)C(F)(F)F` [S2, Perfluorohexane, PFC 5060], the “effect on cell death or intercellular tight junctions (TER)” value in data set [3] is “significantly promoted cell death and the like”.

For `CCOCC` [P4, Diethyl ether, reference compound], in data set [2], the “Normalized cell survival rate” value was 0.01.

`COC(F)(C(F)(F)C(F)(F)F)C(F)(C(F)(F)F)C(F)(F)F` (stereo not shown) [S7, HFE-7300]: the “change in the appearance of leaves” value in data set [1] was “did not change an appearance of leaves of A. thaliana”. In addition, the “Normalized cell survival rate” value in data set [2] is 0.92.

Take `C[Si](C)(C)O[Si](C)(C)C` [S16, OS-10 (Hexamethyldisiloxane)]: in data set [2], the “Normalized cell survival rate” value is on record as 0.

Consider `COC(F)(F)C(F)(F)C(F)(F)C(F)(F)F` [S5, HFE-7100], for which the “Normalized cell survival rate” value in data set [2] was 1.04.

On to `C[Si](C)(C)O[Si](C)(C)O[Si](C)(C)C` [S17, OS-20 (Octamethyltrisiloxane)], for which, in data set [2], the “Normalized cell survival rate” value was determined as 0.05.

With `C[Si](C)(C)O[Si](C)(C)O[Si](C)(C)O[Si](C)(C)C` [S18, OS-30 (Decamethyltetrasiloxane)], the “Normalized cell survival rate” value in data set [2] turned out to be 0.92.
